Measured values as given in ChEMBL document CHEMBL3044863, “Optimization of biological (Phasmarhabditis hermaphrodita) and chemical (iron phosphate and metaldehyde) slug control” (Crop Prot, 2009).
Calls of active or inactive are those of the source. The calls are words filed in the database; no cut-off is given here.

Legend:
Type in all cases: functional, organism-based
Arion subfuscus [1] = assay: Molluscicidal activity against Arion subfuscus in Chinese cabbage at 0.8 g/m2 after 21 to 42 days by miniplot trial analysis in presence of 135 mm rainfall
Arion subfuscus [2] = assay: Molluscicidal activity against Arion subfuscus in Chinese cabbage at 0.8 g/m2 after 7 to 14 days by miniplot trial analysis in presence of 65.8 mm rainfall
Deroceras reticulatum [3] = assay: Molluscicidal activity against Deroceras reticulatum in Chinese cabbage at 0.8 g/m2 after 21 to 42 days by miniplot trial analysis in presence of 135 mm rainfall
Arion subfuscus [4] = assay: Molluscicidal activity against Arion subfuscus in Chinese cabbage at 0.8 g/m2 after 7 to 42 days by miniplot trial analysis in presence of 65.4 mm rainfall
Arion subfuscus [5] = assay: Molluscicidal activity against Arion subfuscus in Chinese cabbage at 0.8 g/m2 after 7 days by miniplot trial analysis in presence of 135 mm rainfall
Arion subfuscus [6] = assay: Molluscicidal activity against Arion subfuscus assessed as reduction of slug number at 0.8 g/m2 after 42 days
Deroceras reticulatum [7] = assay: Molluscicidal activity against Deroceras reticulatum in Chinese cabbage at 0.8 g/m2 after 7 to 28 days by miniplot trial analysis in presence of 65.8 mm rainfall
Arion subfuscus [8] = assay: Molluscicidal activity against Arion subfuscus in Chinese cabbage at 0.8 g/m2 after 7 to 14 days by miniplot trial analysis in presence of 135 mm rainfall
Deroceras panormitanum = assay: Molluscicidal activity against Deroceras panormitanum assessed as reduction of slug number at 0.8 g/m2 after 42 days
Arion subfuscus [9] = assay: Molluscicidal activity against Arion subfuscus in Chinese cabbage at 0.8 g/m2 after 7 to 42 days by miniplot trial analysis in presence of 17 mm rainfall
Deroceras reticulatum [10] = assay: Molluscicidal activity against Deroceras reticulatum in Chinese cabbage at 0.8 g/m2 after 7 days by miniplot trial analysis in presence of 135 mm rainfall
Arion subfuscus [11] = assay: Molluscicidal activity against Arion subfuscus in Chinese cabbage at 0.8 g/m2 after 7 to 42 days
Deroceras reticulatum [12] = assay: Molluscicidal activity against Deroceras reticulatum in Chinese cabbage at 0.8 g/m2 after 7 to 42 days
Deroceras reticulatum [13] = assay: Molluscicidal activity against Deroceras reticulatum in Chinese cabbage at 0.8 g/m2 after 7 to 42 days by miniplot trial analysis in presence of 65.4 mm rainfall
Deroceras reticulatum [14] = assay: Molluscicidal activity against Deroceras reticulatum in Chinese cabbage at 0.8 g/m2 after 7 to 42 days by miniplot trial analysis in presence of 17 mm rainfall
Deroceras reticulatum [15] = assay: Molluscicidal activity against Deroceras reticulatum assessed as reduction of slug number at 0.8 g/m2 after 42 days
Deroceras reticulatum [16] = assay: Molluscicidal activity against Deroceras reticulatum in Chinese cabbage at 0.8 g/m2 after 7 to 14 days by miniplot trial analysis in presence of 135 mm rainfall
Arion subfuscus [17] = assay: Molluscicidal activity against Arion subfuscus in Chinese cabbage at 0.8 g/m2 after 21 to 28 days by miniplot trial analysis in presence of 65.8 mm rainfall
Arion subfuscus [18] = assay: Molluscicidal activity against Arion subfuscus in Chinese cabbage at 5 g/m2 after 7 to 42 days by miniplot trial analysis in presence of 17 mm rainfall
Arion subfuscus [19] = assay: Molluscicidal activity against Arion subfuscus in Chinese cabbage at 5 g/m2 after 21 to 28 days by miniplot trial analysis in presence of 65.8 mm rainfall
Deroceras reticulatum [20] = assay: Molluscicidal activity against Deroceras reticulatum in Chinese cabbage at 5 g/m2 after 7 to 28 days by miniplot trial analysis in presence of 65.8 mm rainfall
Deroceras reticulatum [21] = assay: Molluscicidal activity against Deroceras reticulatum in Chinese cabbage at 5 g/m2 after 7 to 42 days by miniplot trial analysis in presence of 17 mm rainfall
Arion subfuscus [22] = assay: Molluscicidal activity against Arion subfuscus in Chinese cabbage at 5 g/m2 after 7 to 14 days by miniplot trial analysis in presence of 65.8 mm rainfall

CC1OC(C)OC(C)OC(C)O1 (stereo not drawn)
Activity (Arion subfuscus [1]): Active
Activity (Arion subfuscus [2]): Active
Activity (Deroceras reticulatum [3]): Active
Activity (Arion subfuscus [4]): Active
Activity (Arion subfuscus [5]): Active
Activity (Arion subfuscus [6]): inactive
Activity (Deroceras reticulatum [7]): Active
Activity (Arion subfuscus [8]): Active
Activity (Deroceras panormitanum): inactive
Activity (Arion subfuscus [9]): Active
Activity (Deroceras reticulatum [10]): Active
Activity (Arion subfuscus [11]): Active
Activity (Deroceras reticulatum [12]): Active
Activity (Deroceras reticulatum [13]): Active
Activity (Deroceras reticulatum [14]): Active
Activity (Deroceras reticulatum [15]): inactive
Activity (Deroceras reticulatum [16]): Active
Activity (Arion subfuscus [17]): inactive

IRON PHOSPHATE
Activity (Arion subfuscus [18]): Active
Activity (Arion subfuscus [19]): inactive
Activity (Deroceras reticulatum [20]): Active
Activity (Deroceras reticulatum [21]): Active
Activity (Arion subfuscus [22]): Active
